These results are taken from ChEMBL document CHEMBL1275481, “Mechanism and fitness costs of PR-39 resistance in Salmonella enterica serovar Typhimurium LT2” (2008).

Assay [1] deals with Salmonella typhimurium. As to the kind of experiment: Antimicrobial activity against PR-39-resistant sbmA-deficient Salmonella enterica serovar Typhimurium LT2 DA12088 by Etest. The class given is functional.
Assay [2] has as its system Salmonella typhimurium. Kind of assay: Antimicrobial activity against PR-39-resistant Salmonella enterica serovar Typhimurium LT2 DA6192 by Etest. The class given is functional.
The subject of assay [3] is Salmonella typhimurium. As to the kind of experiment: Antimicrobial activity against PR-39-resistant Salmonella enterica serovar Typhimurium LT2 DA10899 harboring Q179Stop mutant gene by Etest. The class given is functional.
Assay [4] concerns Salmonella typhimurium. Kind of assay: Antimicrobial activity against Salmonella enterica serovar Typhimurium LT2 DA10899 harboring Q179Stop mutant gene at 8 uM after 24 hrs. Type of assay: functional, organism-based. Conditions: Salmonella enterica subsp. enterica serovar Typhimurium str. LT2.
Assay [5] deals with Salmonella typhimurium. As to the kind of experiment: Antimicrobial activity against Salmonella enterica serovar Typhimurium LT2 at 16 uM after 24 hrs. Type of assay: functional, organism-based. Conditions: Salmonella enterica subsp. enterica serovar Typhimurium.
Assay [6] deals with Salmonella typhimurium. As to the kind of experiment: Antimicrobial activity against Salmonella enterica serovar Typhimurium LT2 by Etest. The class given is functional, Salmonella enterica subsp. enterica serovar Typhimurium.
In assay [7] the test system is Salmonella typhimurium. Kind of assay: Antimicrobial activity against Salmonella enterica serovar Typhimurium LT2 DA10913 harboring sbmA C67Stop mutant gene by Etest. The class given is functional.
Assay [8] concerns Salmonella typhimurium. Kind of assay: Antimicrobial activity against Salmonella enterica serovar Typhimurium LT2 DA10902 harboring deletion of bp 843-844 in sbmA gene by Etest. Type of assay: functional.
Assay [9] has as its system Salmonella typhimurium. As to the kind of experiment: Antimicrobial activity against Salmonella enterica serovar Typhimurium LT2 DA13088 harboring sbmA gene by Etest in presence of arabinose. Type of assay: functional.
Assay [10] relates to Salmonella typhimurium. As to the kind of experiment: Antimicrobial activity against Salmonella enterica serovar Typhimurium LT2 DA10898 harboring deletion of bp 967 in sbmA gene by Etest. Type of assay: functional.
Assay [11] deals with Salmonella typhimurium. Kind of assay: Antimicrobial activity against Salmonella enterica serovar Typhimurium LT2 DA10912 harboring sbmA Y326C mutant gene by Etest. The class given is functional.
For assay [12], the system named is Salmonella typhimurium. As to the kind of experiment: Antimicrobial activity against sbmA-deficient Salmonella enterica serovar Typhimurium LT2 DA12088 at 8 uM after 24 hrs. The note with it: Salmonella enterica subsp. enterica serovar Typhimurium str. LT2. Type of assay: functional, organism-based.
Assay [13] concerns Salmonella typhimurium. As to the kind of experiment: Antimicrobial activity against Salmonella enterica serovar Typhimurium LT2 DA10897 harboring sbmA W373Stop mutant gene by Etest. Type of assay: functional.
Assay [14] deals with Salmonella typhimurium. As to the kind of experiment: Antimicrobial activity against Salmonella enterica serovar Typhimurium LT2 DA10899 harboring Q179Stop mutant gene at 16 uM after 24 hrs. Type of assay: functional, organism-based. The note with it: Salmonella enterica subsp. enterica serovar Typhimurium str. LT2.
For assay [15], the system named is Salmonella typhimurium. Kind of assay: Antimicrobial activity against sbmA-deficient Salmonella enterica serovar Typhimurium LT2 DA13090 harboring sbmA gene by Etest in presence of arabinose. The class given is functional.
Assay [16] has as its system Salmonella typhimurium. As to the kind of experiment: Antimicrobial activity against Salmonella enterica serovar Typhimurium LT2 at 8 uM after 24 hrs. The class given is functional, organism-based. The note with it: Salmonella enterica subsp. enterica serovar Typhimurium.
The test system of assay [17] is Salmonella typhimurium. As to the kind of experiment: Antimicrobial activity against sbmA-deficient Salmonella enterica serovar Typhimurium LT2 DA12088 by Etest. The class given is functional.
The subject of assay [18] is Salmonella typhimurium. As to the kind of experiment: Antimicrobial activity against Salmonella enterica serovar Typhimurium LT2 DA10896 harboring sbmA T375K mutant gene by Etest. The class given is functional.
Assay [19] has as its system Salmonella typhimurium. Kind of assay: Antimicrobial activity against sbmA-deficient Salmonella enterica serovar Typhimurium LT2 DA12088 assessed as log increase in survival rate at 8 uM after 24 hrs relative to wild type. Type of assay: functional.
In assay [20] the test system is Salmonella typhimurium. As to the kind of experiment: Antimicrobial activity against Salmonella enterica serovar Typhimurium LT2 DA10905 harboring sbmA L379P mutant gene by Etest. Type of assay: functional.
Assay [21] deals with Salmonella typhimurium. Kind of assay: Antimicrobial activity against sbmA-deficient Salmonella enterica serovar Typhimurium LT2 DA12088 assessed as log increase in survival rate at 16 uM after 24 hrs relative to wild type. The class given is functional.
Assay [22] has as its system Salmonella typhimurium. As to the kind of experiment: Antimicrobial activity against sbmA-deficient Salmonella enterica serovar Typhimurium LT2 DA12088 at 16 uM after 24 hrs. Type of assay: functional, organism-based. Conditions: Salmonella enterica subsp. enterica serovar Typhimurium str. LT2.
Assay [23] has as its system Salmonella typhimurium. Kind of assay: Antimicrobial activity against sbmA-deficient Salmonella enterica serovar Typhimurium LT2 DA12088 assessed as log increase in survival rate at 4 uM after 24 hrs relative to wild type. Type of assay: functional.
Assay [24] relates to Salmonella typhimurium. As to the kind of experiment: Antimicrobial activity against Salmonella enterica serovar Typhimurium LT2 DA10914 harboring sbmA S251L mutant gene by Etest. The class given is functional.
Assay [25] has as its system Salmonella typhimurium. As to the kind of experiment: Antimicrobial activity against Salmonella enterica serovar Typhimurium LT2 DA10907 harboring sbmA E287K mutant gene by Etest. The class given is functional.
Assay [26] concerns Salmonella typhimurium. Kind of assay: Antimicrobial activity against Salmonella enterica serovar Typhimurium LT2 DA6192 by Etest. Type of assay: functional.
The test system of assay [27] is Salmonella typhimurium. As to the kind of experiment: Antimicrobial activity against Salmonella enterica serovar Typhimurium LT2 DA10899 harboring sbmA Q179Stop mutant gene by Etest. Type of assay: functional.
Assay [28] deals with Salmonella typhimurium. Kind of assay: Antimicrobial activity against Salmonella enterica serovar Typhimurium LT2 DA14344 harboring sbmA Q179Stop gene by Etest in presence of arabinose. Type of assay: functional.
Setting [29] is: Salmonella enterica subsp. enterica serovar Typhimurium str. LT2.

Converted amounts (≈) assume the structure as drawn. The source made the active and inactive calls.

Consider `CC(=O)OCC1=C(C(=O)O)N2C(=O)[C@@H](NC(=O)Cc3cccs3)[C@H]2SC1` [CEPHALOTHIN], for which the minimal inhibitory concentration (MIC) in [1], in assay [2] and in assay [3] was 3 µg/mL (≈ 7.57 µM) in each case.
With `CC[C@H](C)[C@H](NC(=O)[C@H](CCCCN)NC(=O)[C@H](CCC(=O)O)NC(=O)[C@H](CCCCN)NC(=O)[C@H](CO)NC(=O)[C@H](CCCCN)NC(=O)[C@H](CCCNC(=N)N)NC(=O)[C@H](Cc1ccccc1)NC(=O)[C@H](Cc1ccccc1)NC(=O)[C@H](CC(=O)O)NC(=O)CNC(=O)[C@H](CC(C)C)NC(=O)[C@@H](N)CC(C)C)C(=O)NCC(=O)N[C@@H](CCCCN)C(=O)N[C@@H](CCC(=O)O)C(=O)N[C@@H](Cc1ccccc1)C(=O)N[C@@H](CCCCN)C(=O)N[C@@H](CCCNC(=N)N)C(=O)N[C@H](C(=O)N[C@H](C(=O)N[C@@H](CCC(N)=O)C(=O)N[C@@H](CCCNC(=N)N)C(=O)N[C@H](C(=O)N[C@@H](CCCCN)C(=O)N[C@@H](CC(=O)O)C(=O)N[C@@H](Cc1ccccc1)C(=O)N[C@@H](CC(C)C)C(=O)N[C@@H](CCCNC(=N)N)C(=O)N[C@@H](CC(N)=O)C(=O)N[C@@H](CC(C)C)C(=O)N[C@H](C(=O)N1CCC[C@H]1C(=O)N[C@@H](CCCNC(=N)N)C(=O)N[C@H](C(=O)N[C@@H](CCC(=O)O)C(=O)N[C@@H](CO)C(=O)O)[C@@H](C)O)C(C)C)[C@@H](C)CC)C(C)C)[C@@H](C)CC` [CATHELICIDIN], the minimal inhibitory concentration (MIC) in assay [1], in assay [2] and in assay [3] was 66 µg/mL (≈ 14.7 µM) each time.
Consider `O=C1CN(/N=C/c2ccc([N+](=O)[O-])o2)C(=O)N1` [NITROFURANTOIN], for which the minimum inhibitory concentration (MIC) in assay [1], in assay [2] and in assay [3] was 8 µg/mL (≈ 33.6 µM) in each case.
As for `CO/N=C(\C(=O)N[C@@H]1C(=O)N2C(C(=O)O)=C(COC(N)=O)CS[C@H]12)c1ccco1` [CEFUROXIME], the MIC in assay [1], in assay [2] and in assay [3] was 4 µg/mL (≈ 9.43 µM) throughout.
For the compound `CO/N=C(\C(=O)N[C@@H]1C(=O)N2C(C(=O)[O-])=C(C[N+]3(C)CCCC3)CS[C@H]12)c1csc(N)n1` [CEFEPIME], the MIC in [1], in assay [2] and in [3] was 0.064 µg/mL (≈ 0.133 µM) in each case.
In the case of “H-RRRPRPPYLPRPRPPPFFPPRLPPRIPPGFPPRFPPRFP-NH2”, the result in assay [4], in assay [5], in assay [12], in [14], in assay [16] and in assay [22] was inactive. The MIC (commonly the smallest concentration in the dilution series that meets the test's criterion for growth inhibition) in assay [6] turned out to be 3 µM; in [7] it was 7 µM; in assay [8] it was 7 µM; in [1] it was 28 µg/mL; in assay [9], 1.5 µM; in assay [10], 7 µM. Further, the MIC was found to be 8.5 µg/mL in assay [2]; 5 µM in assay [11]; 7 µM in [13]; 3 µM in assay [15]; 6 µM in assay [17]; 6 µM in assay [18]. Moreover, the MIC in assay [20] stood at 7 µM; in [24] it was 7 µM; in [25], 7 µM; in [26] it was 2 µM; in assay [27], 6 µM; in [3], 28 µg/mL. In assay [28], the minimal inhibitory concentration (MIC) came out at 3 µM. For the same compound, the FC in [19], in assay [21] and in assay [23] was 4 in each case.
Regarding `O=C(O)c1cn(C2CC2)c2cc(N3CCNCC3)c(F)cc2c1=O` [CIPROFLOXACIN], the minimum inhibitory concentration (MIC) in assay [1], in assay [2] and in [3] was 0.008 µg/mL (≈ 0.0241 µM) throughout.
`CC1(C)S[C@@H]2[C@H](NC(=O)[C@H](N)c3ccccc3)C(=O)N2[C@H]1C(=O)O` [AMPICILLIN]: the MIC in assay [1], in [2] and in assay [3] was 0.75 µg/mL (≈ 2.15 µM) in each case.
Regarding `CN(C)[C@@H]1C(O)=C(C(N)=O)C(=O)[C@@]2(O)C(O)=C3C(=O)c4c(O)cccc4[C@@](C)(O)[C@H]3C[C@@H]12` [TETRACYCLINE], the MIC in assay [1], in [2] and in assay [3] was 3 µg/mL (≈ 6.75 µM) throughout.
For the compound H-GLVRKGGEKFGEKLRKIGQKIKEFFQKLALEIEQ-OH, the MIC in [1] worked out at 30 µg/mL; in assay [2], 23 µg/mL; in assay [3], 23 µg/mL.
As to `O=C(N[C@H](CO)[C@H](O)c1ccc([N+](=O)[O-])cc1)C(Cl)Cl` [CHLORAMPHENICOL], the MIC in assay [1], in assay [2] and in assay [3] was 4 µg/mL (≈ 12.4 µM) in each case.
As for BLEOMYCIN, the MIC in assay [1] (setting [29]) is 1.8 µg/mL; in [2] (setting [29]), 0.4 µg/mL; in assay [3] (setting [29]), 1.8 µg/mL.
For H-GLLRKGGEKIGEKLKKIGQKIKNFFQKLVPQPEQ-OH, the MIC in [1], in assay [2] and in assay [3] was 32 µg/mL throughout.
With `CN[C@@H]1[C@H](O[C@H]2[C@H](O[C@H]3[C@H](O)[C@@H](O)[C@H](N=C(N)N)[C@@H](O)[C@@H]3N=C(N)N)O[C@@H](C)[C@]2(O)C=O)O[C@@H](CO)[C@H](O)[C@H]1O` [STREPTOMYCIN], the MIC in [1], in [2] and in [3] was 3 µg/mL (≈ 5.16 µM) in each case.
`NC[C@H]1O[C@H](O[C@H]2[C@H](O)[C@@H](O[C@H]3O[C@H](CO)[C@@H](O)[C@H](N)[C@H]3O)[C@H](N)C[C@@H]2N)[C@H](O)[C@@H](O)[C@@H]1O` [KANAMYCIN]: the MIC in assay [1], in assay [2] and in [3] was 1.5 µg/mL (≈ 3.1 µM) throughout.
As to `CCn1cc(C(=O)O)c(=O)c2ccc(C)nc21` [NALIDIXIC ACID], the MIC in [1], in assay [2] and in [3] was 4 µg/mL (≈ 17.2 µM) each time.
Regarding COLISTIN, the MIC in [1] (setting [29]), in assay [2] (setting [29]) and in [3] (setting [29]) was 0.5 µg/mL each time.
Take `COCC1=C(C(=O)O)N2C(=O)[C@@H](NC(=O)/C(=N\OC)c3csc(N)n3)[C@H]2SC1` [CEFPODOXIME]: the minimum inhibitory concentration (MIC) in [1], in assay [2] and in assay [3] was 0.38 µg/mL (≈ 0.889 µM) each time.
